# Experimental data: patent US20050037946A1, “Methods and compositions for treating cardiovascular disease using 1722, 10280, 59917, 85553, 10653, 9235, 21668, 17794, 2210, 6169, 10102, 21061, 17662, 1468, 12282, 6350, 9035, 1820, 23652, 7301, 8925, 8701, 3533, 9462, 9123, 12788, 17729, 65552, 1261, 21476, 33770, 9380, 2569654, 33556, 53656, …” (Millennium Pharmaceuticals, Inc., priority 2003, published 2005)
# Columns and labels:
# [1] = tested on: 6169 mRNA; experiment: 6169 mRNA in Marmoset livers (TaqMan); assay type: in vivo
# Excerpt: (§1) This example describes the TaqMan™ procedure. The Taqman™ procedure is a quantitative, reverse transcription PCR-based approach for detecting mRNA. The RT-PCR reaction exploits the 5′ nuclease activity of AmpliTaq Gold™ DNA Polymerase to cleave a TaqMan™ probe during PCR. Briefly, cDNA was generated from the samples of interest, e.g., heart, kidney, liver, skeletal muscle, and various vessels, and used as the starting material for PCR amplification. In addition to the 5′ and 3′ gene-specific primers, a gene-specific oligonucleotide probe (complementary to the region being amplified) was included in the reaction (i.e., the Taqman™ probe). […]
# (§2) During the PCR reaction, cleavage of the probe separates the reporter dye and the quencher dye, resulting in increased fluorescence of the reporter. Accumulation of PCR products is detected directly by monitoring the increase in fluorescence of the reporter dye. When the probe is intact, the proximity of the reporter dye to the quencher dye results in suppression of the reporter fluorescence. […]
# [2] = tested on: 53656 mRNA; experiment: 53656 mRNA in livers of Marmosets (TaqMan); assay type: in vivo
# [3] = tested on: 8921 mRNA; experiment: 8921 mRNA expression in marmosets; assay type: in vivo
# [4] = tested on: 6169 mRNA; experiment: 6169 mRNA in liver of African Green Monkeys, lipid feeding (TaqMan); assay type: in vivo; details: feeding / in the diet
# [5] = tested on: 2569654 mRNA; experiment: 2569654 mRNA in livers of ApoE knock out mice with cholesterol feeding (TaqMan); assay type: in vivo; details: livers of ApoE knock out (KO) mice with cholesterol feeding
# Excerpt: as §1, §2
# [6] = tested on: 112091; experiment: 112091 expression in livers of African Green Monkeys, cholesterol; assay type: in vivo
# [7] = tested on: 17729 mRNA; experiment: 17729 mRNA in ApoE knockout mouse models, cholesterol feeding (TaqMan); assay type: in vivo
# Excerpt: as §1, §2
# [8] = tested on: 43969; experiment: 43969 expression in livers of ApoE knock-out mice administered cholesterol (TaqMan); assay type: in vivo
# Excerpt: as §1, §2
# [9] = tested on: 10653 mRNA; experiment: 10653 mRNA in liver of ApoE knockout mice, cholesterol feeding (TaqMan); assay type: in vivo; details: two and six months of cholesterol feeding of ApoE knockout mice
# Excerpt: as §1, §2
# [10] = tested on: 19319 mRNA; experiment: 19319 mRNA in ApoE knock-out mice, cholesterol (TaqMan); assay type: in vivo
# Excerpt: as §1, §2
# [11] = tested on: 54946 mRNA; experiment: 54946 mRNA in livers of Apo E knock out mice, cholesterol (microarray or RT-PCR); assay type: in vivo; details: livers of Apo E knock out mice relative to wild-type controls, p=0.001
# [12] = tested on: 9325 mRNA; experiment: 9325 mRNA in liver of ApoE knockout mice, cholesterol feeding (TaqMan); assay type: in vivo; details: two and six months of cholesterol feeding of ApoE knockout mice
# Excerpt: as §1, §2
# [13] = tested on: 554 mRNA; experiment: 554 mRNA in livers of African Green Monkeys, cholesterol; assay type: in vivo
# [14] = tested on: 9235 mRNA; experiment: 9235 mRNA in livers of African Green Monkeys, cholesterol (TaqMan); assay type: in vivo; details: p=0.09
# Excerpt: as §1, §2
# [15] = tested on: 10653 mRNA; experiment: 10653 mRNA in livers of African Green Monkeys, cholesterol (TaqMan); assay type: in vivo; details: p=0.05
# Excerpt: as §1, §2
# [16] = tested on: isolated rat arterioles; details: compared to basal tone; cited from earlier work
# [17] = tested on: 8701 mRNA; experiment: 8701 mRNA in livers of marmosets treated with lipid-lowering therapies (TaqMan); assay type: in vivo
# [18] = tested on: 10653 mRNA; experiment: 10653 mRNA in livers of marmosets treated with lipid-lowering therapies (TaqMan); assay type: in vivo
# [19] = tested on: 7301 mRNA; experiment: 7301 mRNA in livers of marmosets treated with lipid-lowering therapies (TaqMan); assay type: in vivo
# Excerpt: as §1, §2
# [20] = tested on: 10102 mRNA; experiment: 10102 mRNA regulation by lipid lowering drugs (TaqMan)
# [21] = tested on: 9123 mRNA; experiment: 9123 mRNA in livers of marmosets treated with lipid-lowering therapies (TaqMan); assay type: in vivo
# Excerpt: as §1, §2
# [22] = tested on: 9462 mRNA; experiment: 9462 mRNA regulation by lipid lowering drugs (TaqMan)
# Excerpt: as §1, §2
# [23] = tested on: 2569654 mRNA; experiment: 2569654 mRNA in marmoset models (TaqMan); assay type: in vivo
# Excerpt: (§3) This example describes the TaqMan™ procedure. The Taqman™ procedure is a quantitative, reverse transcription PCR-based approach for detecting mRNA. The RT-PCR reaction exploits the 5′ nuclease activity of AmpliTaq Gold™ DNA Polymerase to cleave a TaqMan™ probe during PCR. Briefly, cDNA was generated from the samples of interest, e.g., heart, kidney, liver, skeletal muscle, and various vessels, and used as the starting material for PCR amplification. In addition to the 5′ and 3′ gene-specific primers, a gene-specific oligonucleotide probe (complementary to the region being amplified) was included in the reaction (i.e., the Taqman™ probe). The TaqMan™ probe includes the oligonucleotide with a fluorescent reporter dye covalently linked to the 5′ end of the probe (such as FAM (6-carboxyfluorescein), TET (6-carboxy4,7,2′,7′-tetrachlorofluorescein), JOE (6-carboxy-4,5-dichloro-2,7-dimethoxyfluorescein), or VIC) and a quencher dye (TAMRA (6-carboxy-N,N,N′,N′-tetramethylrhodamine) at the 3′ end of the probe.
# (§4) During the PCR reaction, cleavage of the probe separates the reporter dye and the quencher dye, resulting in increased fluorescence of the reporter. Accumulation of PCR products is detected directly by monitoring the increase in fluorescence of the reporter dye. When the probe is intact, the proximity of the reporter dye to the quencher dye results in suppression of the reporter fluorescence. During PCR, if the target of interest is present, the probe specifically anneals between the forward and reverse primer sites. The 5′-3′ nucleolytic activity of the AmpliTaq™ Gold DNA Polymerase cleaves the probe between the reporter and the quencher only if the probe hybridizes to the target. The probe fragments are then displaced from the target, and polymerization of the strand continues. The 3′ end of the probe is blocked to prevent extension of the probe during PCR. […] RNA was prepared using the trizol method and treated with DNase to remove contaminating genomic DNA. cDNA was synthesized using standard techniques.
# [24] = tested on: 3533 mRNA; experiment: 3533 mRNA regulation by lipid lowering drugs (TaqMan)
# Excerpt: as §3, §4
# [25] = tested on: coronary arteries; details: disruption of microtubules; cited from earlier work
# [26] = tested on: 9380 mRNA; experiment: 9380 mRNA in livers of marmosets (TaqMan); assay type: in vivo
# [27] = tested on: 2552 mRNA; experiment: 2552 mRNA in marmoset livers (TaqMan); assay type: in vivo
# [28] = tested on: 1261 mRNA; experiment: 1261 mRNA in statically cultured or shear-stressed cells (TaqMan); assay type: cell-based
# Excerpt: as §3, §4
# [29] = tested on: isolated hepatocytes; details: via the CCK-B receptor; cited from earlier work
# [30] = tested on: 261 mRNA; experiment: 261 mRNA in cultured human monocytes and macrophages (TaqMan); assay type: cell-based
# Excerpt: as §1, §2
# [31] = tested on: 9035 mRNA; experiment: 9035 mRNA in cultured human monocytes and macrophages (TaqMan); assay type: cell-based; details: 18 hours of stimulation
# Excerpt: as §1, §2
# [32] = tested on: Syk; experiment: 1673 (Syk) expression in monocytes and macrophages (TaqMan); assay type: cell-based; details: monocytes or macrophages
# Excerpt: as §1, §2
# [33] = tested on: serine/threonine kinase Akt; details: primary human peripheral blood monocytes; cited from earlier work
# [34] = tested on: 33556 mRNA; experiment: 33556 mRNA in cultured human macrophages (TaqMan); assay type: cell-based; details: 18h of stimulation
# Excerpt: as §1, §2
# [35] = tested on: 12282 mRNA; experiment: 12282 mRNA in cultured human monocytes and macrophages (TaqMan); assay type: cell-based; details: 18 hours of stimulation
# Excerpt: as §1, §2
molecule,measurement,setting,value
COCc1c(C(C)C)nc(C(C)C)c(/C=C/[C@@H](O)C[C@@H](O)CC(=O)O)c1-c1ccc(F)cc1 [cerivastatin],6169 mRNA upregulated,[1],2.4 fold
same,53656 mRNA upregulated,[2],1.4 fold
same,increase in 8921 mRNA expression,[3],1.4 fold
CC(C)CCC[C@@H](C)[C@H]1CC[C@H]2[C@@H]3CC=C4C[C@@H](O)CC[C@]4(C)[C@H]3CC[C@]12C [cholesterol],6169 mRNA downregulated,[4],1.3 fold
same,2569654 mRNA expression,[5],significantly downregulated
same,112091 expression,[6],down-regulated
same,17729 mRNA expression,[7],downregulated
same,43969 expression,[8],downregulated
same,10653 mRNA downregulated,[9],1.3 fold
same,19319 mRNA expression,[10],downregulated
same,54946 mRNA downregulated,[11],0.62 fold
same,9325 mRNA downregulated,[12],1.8 fold
same,554 mRNA expression,[13],down-regulated
same,9235 mRNA downregulated,[14],1.3 fold
same,10653 mRNA downregulated,[15],1.5 fold
CN[C@H]1CCc2cc(OC)c(OC)c(OC)c2-c2ccc(OC)c(=O)cc21 [demecolcine],vasoconstriction,[16],32.7%
Cc1ccc(C)c(OCCCC(C)(C)C(=O)O)c1 [gemfibrozil],8701 mRNA expression,[17],upregulated
same,10653 mRNA expression,[18],downregualted
same,7301 mRNA expression,[19],down-reregulated
same,10102 mRNA expression,[20],significantly upregulated
same,9123 mRNA expression,[21],upregulated
O=C(O)c1cccnc1 [niacin],9462 mRNA expression,[22],upregulated
same,2569654 mRNA expression,[23],upregulated
same,10102 mRNA expression,[20],significantly upregulated
same,3533 mRNA expression,[24],significantly downregulated
COC(=O)Nc1nc2ccc(C(=O)c3cccs3)cc2[nH]1 [nocodazole],vascular tension and intracellular calcium levels,[25],increases
same,vasoconstriction,[16],29.6%
CC(C)(Sc1cc(C(C)(C)C)c(O)c(C(C)(C)C)c1)Sc1cc(C(C)(C)C)c(O)c(C(C)(C)C)c1 [probucol],10653 mRNA expression,[18],downregualted
same,9380 mRNA expression,[26],upregulated
same,7301 mRNA expression,[19],down-reregulated
same,2552 mRNA expression,[27],upregulated
same,10102 mRNA expression,[20],significantly upregulated
same,9123 mRNA expression,[21],upregulated
IL-1β,1261 expression in response to angiogenic/inflammatory stimuli,[28],transient upregulation
TNF-α,1261 expression in response to angiogenic/inflammatory stimuli,[28],transient upregulation
VEGF,1261 expression in response to angiogenic/inflammatory stimuli,[28],transient upregulation
same,"1261 mRNA expression, timecourse","[28]; 1 hour of treatment, statically cultured or shear-stressed cells",strong upregulation
same,1261 mRNA expression,[28]; VEGF individually,upregulated
cholesystkinin-8 [CCK-8],reduction of triacylglycerol secretion,[29],53%
interferon gamma,261 mRNA expression,[30],downregulated
same,9035 mRNA expression,[31],upregulated
same,Syk expression,[32],No apparent upregulation
same,phosphorylation of the serine/threonine kinase Akt,[33],induces
same,33556 mRNA expression,[34],upregulated
same,12282 mRNA expression,[35],upregulated
